Data taken from patent US9844550B2, “Phtalazinone derivatives and manufacturing process thereof” (ILDONG PHARM CO., LTD., priority 2013, dated 2017).
pIC50: −log10 of the molar value.

Test system: MDA-MB-436 breast cancer cell line
Experiment: Cell viability assay (MDA-MB-436)
Type: cell-based
Settings: Homo sapiens, 144 h; MDA-MB-436 cells, treated 6 days
Procedure: 2. Cell Viability Assay (MDA-MB-436)
(§1) Cell viability assay was performed by using MDA-MB-436 cell line to measure cytotoxicity of compounds in the present invention. MDA-MB-436 breast cancer cell line was seeded into 96-well plates at 37° C. under 5% CO2 atmosphere using DMEM/F12 (Gibco) containing 10% FBS (Hyclone). After 24 hr incubation, cells were treated with the invented compounds at various concentrations for 6 days. The medium was changed every 3 day. 6 days later, A fluorescence reagent was used to determine the IC50 values.

Row | SMILES | pIC50
1 | CC(C)C(C)NC1CN(C(=O)c2cc(Cc3n[nH]c(=O)c4ccccc34)ccc2F)C1 (stereo not drawn) [Compound I-41, 4-(4-fluoro-3-(3-((3-methylbutan-2-yl)amino)azetidine-1-carbonyl)benzyl)phthalazin-1(2H)-one] | ≥ 8.30
2 | COC[C@H](C)NC1CN(C(=O)c2cc(Cc3n[nH]c(=O)c4ccccc34)ccc2F)C1 [Compound I-82, (S)-4-(4-fluoro-3-(3-((1-methoxypropan-2-yl)amino)azetidine-1-carbonyl)benzyl)phthalazin-1(2H)-one] | 7.30 to 8.30
3 | CC(C#N)NC1CN(C(=O)c2cc(Cc3n[nH]c(=O)c4ccccc34)ccc2F)C1 (stereo not drawn) [Compound I-100, 2-((1-(2-fluoro-5-((4-oxo-3,4-dihydrophthalazin-1-yl)methyl)benzoyl)azetidin-3-yl)amino)propanenitrile] | 6.00 to 6.52
4 | O=C(c1cc(Cc2n[nH]c(=O)c3ccccc23)ccc1F)N1CC[C@@H](Nc2cc(C(F)(F)F)ccn2)C1 [Compound I-132, (R)-4-(4-fluoro-3-(3-((4-(trifluoromethyl)pyridin-2-yl)amino)pyrrolidine-1-carbonyl)benzyl)phthalazin-1(2H)-one] | ≥ 8.30
5 | CN(Cc1cccnc1)C1CN(C(=O)c2cc(Cc3n[nH]c(=O)c4ccccc34)ccc2F)C1 [Compound I-66, 4-(4-fluoro-3-(3-(methyl(pyridin-3-ylmethyl)amino)azetidine-1-carbonyl)benzyl)phthalazin-1(2H)-one] | 6.52 to 7.30
6 | O=C(c1cc(Cc2n[nH]c(=O)c3ccccc23)ccc1F)N1CC[C@@H](Nc2nccs2)C1 [Compound I-124, (R)-4-(4-fluoro-3-(3-(thiazol-2-ylamino)pyrrolidine-1-carbonyl)benzyl)phthalazin-1(2H)-one] | 6.52 to 7.30
7 | CCCCCNC1CN(C(=O)c2cc(Cc3n[nH]c(=O)c4ccccc34)ccc2F)C1 [Compound I-57, 4-(4-fluoro-3-(3-(pentylamino)azetidine-1-carbonyl)benzyl)phthalazin-1(2H)-one] | 7.30 to 8.30
8 | CC(C)=CCNC1CN(C(=O)c2cc(Cc3n[nH]c(=O)c4ccccc34)ccc2F)C1 [Compound I-54, 4-(4-fluoro-3-(3-((3-methylbut-2-en-1-yl)amino)azetidine-1-carbonyl)benzyl)phthalazin-1(2H)-one] | 7.30 to 8.30
9 | C#CCCNC1CN(C(=O)c2cc(Cc3n[nH]c(=O)c4ccccc34)ccc2F)C1 [Compound I-91, 4-(3-(3-(but-3-yn-1-ylamino)azetidine-1-carbonyl)-4-fluorobenzyl)phthalazin-1(2H)-one] | 6.52 to 7.30
10 | O=C(c1cc(Cc2n[nH]c(=O)c3ccccc23)ccc1F)N1CC(C(=O)N2CCCC2)C1 [Compound I-22, 4-(4-fluoro-3-(3-(pyrrolidine-1-carbonyl)azetidine-1-carbonyl)benzyl)phthalazin-1(2H)-one] | 6.52 to 7.30
11 | N#CC1(CNCC2CN(C(=O)c3cc(Cc4n[nH]c(=O)c5ccccc45)ccc3F)C2)CC1 [Compound I-151, 1-((((1-(2-fluoro-5-((4-oxo-3,4-dihydrophthalazin-1-yl)methyl)benzoyl)azetidin-3-yl)methyl)amino)methyl)cyclopropanecarbonitrile] | 6.00 to 6.52
12 | CCCC(C)NC1CN(C(=O)c2cc(Cc3n[nH]c(=O)c4ccccc34)ccc2F)C1 (stereo not drawn) [Compound I-48, 4-(4-fluoro-3-(3-(pentan-2-ylamino)azetidine-1-carbonyl)benzyl)phthalazin-1(2H)-one] | ≥ 8.30
13 | CC(C)CC(C)NC1CN(C(=O)c2cc(Cc3n[nH]c(=O)c4ccccc34)ccc2F)C1 (stereo not drawn) [Compound I-46, 4-(4-fluoro-3-(3-((4-methylpentan-2-yl)amino)azetidine-1-carbonyl)benzyl)phthalazin-1(2H)-one] | 7.30 to 8.30
14 | CC(C)(C)CNC1CN(C(=O)c2cc(Cc3n[nH]c(=O)c4ccccc34)ccc2F)C1 [Compound I-37, 4-(4-fluoro-3-(3-(neopentylamino)azetidine-1-carbonyl)benzyl)phthalazin-1(2H)-one] | 7.30 to 8.30
15 | N#CC1(CNC2CN(C(=O)c3cc(Cc4n[nH]c(=O)c5ccccc45)ccc3F)C2)CC1 [Compound I-94, 1-(((1-(2-fluoro-5-((4-oxo-3,4-dihydrophthalazin-1-yl)methyl)benzoyl)azetidin-3-yl)amino)methyl)cyclopropanecarbonitrile] | 6.00 to 6.52
16 | CN(C)C(=O)c1cccnc1N[C@@H]1CCN(C(=O)c2cc(Cc3n[nH]c(=O)c4ccccc34)ccc2F)C1 [Compound I-129, (R)-2-((1-(2-fluoro-5-((4-oxo-3,4-dihydrophthalazin-1-yl)methyl)benzoyl)pyrrolidin-3-yl)amino)-N,N-dimethylnicotinamide] | 6.00 to 6.52
17 | O=C(c1cc(Cc2n[nH]c(=O)c3ccccc23)ccc1F)N1CC(Nc2ncccn2)C1 [Compound I-109, 4-(4-fluoro-3-(3-(pyrimidin-2-ylamino)azetidine-1-carbonyl)benzyl)phthalazin-1(2H)-one] | 6.00 to 6.52
18 | CN(Cc1ccncc1)[C@@H]1CCN(C(=O)c2cc(Cc3n[nH]c(=O)c4ccccc34)ccc2F)C1 [Compound I-61, (R)-4-(4-fluoro-3-(3-(methyl(pyridin-4-ylmethyl)amino)pyrrolidine-1-carbonyl)benzyl)phthalazin-1(2H)-one] | 6.52 to 7.30
19 | O=C(c1cc(Cc2n[nH]c(=O)c3ccccc23)ccc1F)N1CC(NCCC(F)(F)F)C1 [Compound I-134, 4-(4-fluoro-3-(3-((3,3,3-trifluoropropyl)amino)azetidine-1-carbonyl)benzyl)phthalazin-1(2H)-one] | 6.52 to 7.30
20 | O=C(c1cc(Cc2n[nH]c(=O)c3ccccc23)ccc1F)N1CC(NC2(C(F)(F)F)CCC2)C1 [Compound I-104, 4-(4-fluoro-3-(3-((1-(trifluoromethyl)cyclobutyl)amino)azetidine-1-carbonyl)benzyl)phthalazin-1(2H)-one] | 6.00 to 6.52
21 | C=C(C)CNC1CN(C(=O)c2cc(Cc3n[nH]c(=O)c4ccccc34)ccc2F)C1 [Compound I-92, 4-(4-fluoro-3-(3-((2-methylallyl)amino)azetidine-1-carbonyl)benzyl)phthalazin-1(2H)-one] | 7.30 to 8.30
22 | CC(C)[C@@H](C)NC1CN(C(=O)c2cc(Cc3n[nH]c(=O)c4ccccc34)ccc2F)C1 [Compound I-88, (R)-4-(4-fluoro-3-(3-((3-methylbutan-2-yl)amino)azetidine-1-carbonyl)benzyl)phthalazin-1(2H)-one] | ≥ 8.30

Results, then the compound that gave them:

Row | pIC50 | SMILES
23 | ≥ 8.30 | CC(NC1CN(C(=O)c2cc(Cc3n[nH]c(=O)c4ccccc34)ccc2F)C1)C1CC1 (stereo not drawn) [Compound I-42, 4-(3-(3-((1-cyclopropylethyl)amino)azetidine-1-carbonyl)-4-fluorobenzyl)phthalazin-1(2H)-one]
24 | 7.30 to 8.30 | O=C(c1cc(Cc2n[nH]c(=O)c3ccccc23)ccc1F)N1CC(NC2CCCCC2)C1 [Compound I-28, 4-(3-(3-(cyclohexylamino)azetidine-1-carbonyl)-4-fluorobenzyl)phthalazin-1(2H)-one]
25 | 6.00 to 6.52 | O=C(c1cc(Cc2n[nH]c(=O)c3ccccc23)ccc1F)N1CC(N(CC2CC2)CC2CC2)C1 [Compound I-34, 4-(3-(3-(bis(cyclopropylmethyl)amino)azetidine-1-carbonyl)-4-fluorobenzyl)phthalazin-1(2H)-one]
26 | 6.00 to 6.52 | C#CCN(CC1CN(C(=O)c2cc(Cc3n[nH]c(=O)c4ccccc34)ccc2F)C1)C1CC1 [Compound I-153, 4-(3-(3-((cyclopropyl(prop-2-yn-1-yl)amino)methyl)azetidine-1-carbonyl)-4-fluorobenzyl)phthalazin-1(2H)-one]
27 | 7.30 to 8.30 | CCCNC1CN(C(=O)c2cc(Cc3n[nH]c(=O)c4ccccc34)ccc2F)C1 [Compound I-59, 4-(4-fluoro-3-(3-(propylamino)azetidine-1-carbonyl)benzyl)phthalazin-1(2H)-one]
28 | 6.52 to 7.30 | O=C(c1cc(Cc2n[nH]c(=O)c3ccccc23)ccc1F)N1CC(N2CCCCC2)C1 [Compound I-77, 4-(4-fluoro-3-(3-(piperidin-1-yl)azetidine-1-carbonyl)benzyl)phthalazin-1(2H)-one]
29 | 6.52 to 7.30 | CN(C1CCC1)C1CN(C(=O)c2cc(Cc3n[nH]c(=O)c4ccccc34)ccc2F)C1 [Compound I-71, 4-(3-(3-(cyclobutyl(methyl)amino)azetidine-1-carbonyl)-4-fluorobenzyl)phthalazin-1(2H)-one]
30 | 6.00 to 6.52 | O=C(c1cc(Cc2n[nH]c(=O)c3ccccc23)ccc1F)N1CC(N(c2ncccn2)C2CCC2)C1 [Compound I-116, 4-(3-(3-(cyclobutyl(pyrimidin-2-yl)amino)azetidine-1-carbonyl)-4-fluorobenzyl)phthalazin-1(2H)-one]
31 | 7.30 to 8.30 | C=CCNC1CN(C(=O)c2cc(Cc3n[nH]c(=O)c4ccccc34)ccc2F)C1 [Compound I-51, 4-(3-(3-(allylamino)azetidine-1-carbonyl)-4-fluorobenzyl)phthalazin-1(2H)-one]
32 | 6.52 to 7.30 | CCN(C1CC1)C1CN(C(=O)c2cc(Cc3n[nH]c(=O)c4ccccc34)ccc2F)C1 [Compound I-70, 4-(3-(3-(cyclopropyl(ethyl)amino)azetidine-1-carbonyl)-4-fluorobenzyl)phthalazin-1(2H)-one]
33 | 7.30 to 8.30 | O=C(c1cc(Cc2n[nH]c(=O)c3ccccc23)ccc1F)N1CC(N2CCCC2)C1 [Compound I-76, 4-(4-fluoro-3-(3-(pyrrolidin-1-yl)azetidine-1-carbonyl)benzyl)phthalazin-1(2H)-one]

Test system: Capan-1 pancreatic cancer cell line
Experiment: Cell viability assay (Capan-1)
Type: cell-based
Settings: Homo sapiens, 240 h; Capan-1 cells, treated 10 days
Procedure: 3. Cell Viability Assay (Capan-1)
as §1, with “using Capan-1” for “using MDA-MB-436”, “invention. Capan-1 pancreatic” for “invention. MDA-MB-436 breast”, “using IMDM (Sigma)” for “using DMEM/F12 (Gibco)”, “for 10” for “for 6”, “days. After 7-day incubation, the” for “days. The”, “was changed. 10” for “was changed every 3 day. 6”

Row | SMILES | pIC50
34 | CC(C)C(C)NC1CN(C(=O)c2cc(Cc3n[nH]c(=O)c4ccccc34)ccc2F)C1 (stereo not drawn) [Compound I-41, 4-(4-fluoro-3-(3-((3-methylbutan-2-yl)amino)azetidine-1-carbonyl)benzyl)phthalazin-1(2H)-one] | 6.00 to 6.52
35 | COC[C@H](C)NC1CN(C(=O)c2cc(Cc3n[nH]c(=O)c4ccccc34)ccc2F)C1 [Compound I-82, (S)-4-(4-fluoro-3-(3-((1-methoxypropan-2-yl)amino)azetidine-1-carbonyl)benzyl)phthalazin-1(2H)-one] | 6.00 to 6.52
36 | CC(C#N)NC1CN(C(=O)c2cc(Cc3n[nH]c(=O)c4ccccc34)ccc2F)C1 (stereo not drawn) [Compound I-100, 2-((1-(2-fluoro-5-((4-oxo-3,4-dihydrophthalazin-1-yl)methyl)benzoyl)azetidin-3-yl)amino)propanenitrile] | 6.00 to 6.52
37 | O=C(c1cc(Cc2n[nH]c(=O)c3ccccc23)ccc1F)N1CC[C@@H](Nc2cc(C(F)(F)F)ccn2)C1 [Compound I-132, (R)-4-(4-fluoro-3-(3-((4-(trifluoromethyl)pyridin-2-yl)amino)pyrrolidine-1-carbonyl)benzyl)phthalazin-1(2H)-one] | 7.30 to 8.30

Other lines, results leading:

Row | pIC50 | SMILES
38 | 6.00 to 6.52 | CC(NC1CN(C(=O)c2cc(Cc3n[nH]c(=O)c4ccccc34)ccc2F)C1)C1CC1 (stereo not drawn) [Compound I-42, 4-(3-(3-((1-cyclopropylethyl)amino)azetidine-1-carbonyl)-4-fluorobenzyl)phthalazin-1(2H)-one]
39 | 6.00 to 6.52 | O=C(c1cc(Cc2n[nH]c(=O)c3ccccc23)ccc1F)N1CC(NC2CCCCC2)C1 [Compound I-28, 4-(3-(3-(cyclohexylamino)azetidine-1-carbonyl)-4-fluorobenzyl)phthalazin-1(2H)-one]
